Assay results published in publication PMC9841431 (Nucleic Acids Research, 2022).

How the values were obtained:
[1] = tested on: M. tuberculosis mrx2 KO mutant (Δmrx2); format: cell-based; settings: times higher
[2] = target: Mrx2 mutants (Mycobacterium tuberculosis, UniProt O53193, G95S); format: biochemical, M. tuberculosis

SMILES | MIC of Δmrx2 relative to M. tuberculosis H37Rv [1] | Activity of Mrx2G95S against the compound [2]
COC(=O)c1ccc2c(ccc3oc([N+](=O)[O-])cc32)c1 [nNF-C4, Methyl 2-nitronaphtho[2,1-b]furan-7-carboxylate] | 16 times | –
O=[N+]([O-])c1cc2cc3ccc4oc([N+](=O)[O-])cc4c3cc2o1 [nNF-C2, 2,8-Dinitronaphtho[2,1-b:7,6-b']difuran] | 8 times | maintained its ability to metabolize
